Measured values reported in ChEMBL document CHEMBL1201862, “PubChem BioAssay data set” (2004).
The source made the active and inactive calls.

Tests used:
Vero = experiment: Vero cell toxicity, dose response, cytotoxicity control, plate reader, cherry-pick samples (AID 687020); type: functional, cell-based; settings: Chlorocebus sabaeus
[1] = biological target: T1, Corticotropin-releasing factor receptor 2/Corticotropin-releasing factor-binding protein (Homo sapiens, UniProt P24387+Q13324); experiment: activators of CRF receptor 2 with binding protein – uHTS hits, confirmation (AID 602473); type: functional; settings: read-out: EC50_Mean
T1 sequence (Q13324 whole entry): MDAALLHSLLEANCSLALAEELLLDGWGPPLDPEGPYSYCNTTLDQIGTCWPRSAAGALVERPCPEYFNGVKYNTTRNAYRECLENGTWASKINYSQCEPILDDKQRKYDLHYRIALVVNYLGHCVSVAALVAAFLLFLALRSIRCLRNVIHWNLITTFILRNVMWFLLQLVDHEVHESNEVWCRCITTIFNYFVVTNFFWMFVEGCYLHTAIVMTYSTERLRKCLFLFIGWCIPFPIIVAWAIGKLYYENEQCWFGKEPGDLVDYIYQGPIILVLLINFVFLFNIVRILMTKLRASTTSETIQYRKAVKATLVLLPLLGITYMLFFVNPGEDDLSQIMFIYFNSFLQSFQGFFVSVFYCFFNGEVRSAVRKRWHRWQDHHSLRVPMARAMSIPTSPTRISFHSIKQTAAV
T1 sequence (P24387 whole entry): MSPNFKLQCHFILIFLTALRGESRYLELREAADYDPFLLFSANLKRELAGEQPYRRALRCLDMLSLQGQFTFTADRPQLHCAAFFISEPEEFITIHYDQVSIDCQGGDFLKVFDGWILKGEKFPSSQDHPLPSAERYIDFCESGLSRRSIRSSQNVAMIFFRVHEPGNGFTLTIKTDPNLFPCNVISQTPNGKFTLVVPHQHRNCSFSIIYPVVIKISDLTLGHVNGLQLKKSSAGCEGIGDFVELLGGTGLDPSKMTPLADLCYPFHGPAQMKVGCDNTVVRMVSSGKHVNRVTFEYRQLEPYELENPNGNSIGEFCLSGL

[2] = biological target: T1, Corticotropin-releasing factor receptor 2/Corticotropin-releasing factor-binding protein; experiment: Dose Response confirmation of uHTS hits for small molecule antagonists of the CRF-binding protein and CRF-R2 receptor complex.; type: functional; settings: read-out: IC50_Mean
[3] = off-target signal loss in HeLa-CEM21 co-culture – HeLa F-luc CTL cells, cherry-picked, counter-screen for HIV-1 Env fusion inhibitor project, dose response (AID 652040); type: functional, cell-based;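 also: potency for signal decrease marking cytotoxic or nonspecific inhibition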
[4] = inhibitors of intracellular T. cruzi replication, confirmation, NIH3T3 host cells, beta-gal luminescence (AID 2044); type: functional, cell-based;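 also: intracellular parasites grown in NIH/3T3 mouse fibroblasts as host cells; luminescent beta-galactosidase reporter signal from transgenic T. cruzi replicating inside host cells; inhibitors lower the luminescence signal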
[5] = cytotoxicity toward NIH3T3 fibroblasts, dose response, counter-screen, cell-based, ATP luminescence, mouse fibroblasts (AID 2010); type: functional;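 also: cells exposed to compound for about 90 hours before reading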
[6] = inhibitors of clade B AD8 Env fusion, dose response, cell-based, cherry-pick (AID 652062); type: functional;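 also: luciferase signal from cell-cell fusion driven by HIV-1 clade B AD8 Env; potency is for inhibitors of fusion seen as a drop in luminescence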
[7] = CEM21 lymphoblast cell cytotoxicity, dose response, cytotoxicity control for viral fusion inhibitor project, CellTiter-Glo luminescence, cherry-picked (AID 652042); type: functional, cell-based;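 also: potency for signal decrease meaning cytotoxicity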
[8] = inhibitors of HIV Env-driven cell fusion, dose response, cherry-pick (AID 652057); type: functional, cell-based
[9] = ZM109 Env clade C HIV-1 fusion inhibitors, dose response, HeLa effector, CEM target cells, luciferase, cherry-pick (AID 652058); type: functional, cell-based
Beta-galactosidase = Beta-galactosidase (Escherichia coli, UniProt Q8VNN2); experiment: Dose response counterscreen for EBI2 assay utilizing the enzyme, b-galactosidase.; type: functional
Beta-galactosidase, sequence (Q8VNN2 whole entry): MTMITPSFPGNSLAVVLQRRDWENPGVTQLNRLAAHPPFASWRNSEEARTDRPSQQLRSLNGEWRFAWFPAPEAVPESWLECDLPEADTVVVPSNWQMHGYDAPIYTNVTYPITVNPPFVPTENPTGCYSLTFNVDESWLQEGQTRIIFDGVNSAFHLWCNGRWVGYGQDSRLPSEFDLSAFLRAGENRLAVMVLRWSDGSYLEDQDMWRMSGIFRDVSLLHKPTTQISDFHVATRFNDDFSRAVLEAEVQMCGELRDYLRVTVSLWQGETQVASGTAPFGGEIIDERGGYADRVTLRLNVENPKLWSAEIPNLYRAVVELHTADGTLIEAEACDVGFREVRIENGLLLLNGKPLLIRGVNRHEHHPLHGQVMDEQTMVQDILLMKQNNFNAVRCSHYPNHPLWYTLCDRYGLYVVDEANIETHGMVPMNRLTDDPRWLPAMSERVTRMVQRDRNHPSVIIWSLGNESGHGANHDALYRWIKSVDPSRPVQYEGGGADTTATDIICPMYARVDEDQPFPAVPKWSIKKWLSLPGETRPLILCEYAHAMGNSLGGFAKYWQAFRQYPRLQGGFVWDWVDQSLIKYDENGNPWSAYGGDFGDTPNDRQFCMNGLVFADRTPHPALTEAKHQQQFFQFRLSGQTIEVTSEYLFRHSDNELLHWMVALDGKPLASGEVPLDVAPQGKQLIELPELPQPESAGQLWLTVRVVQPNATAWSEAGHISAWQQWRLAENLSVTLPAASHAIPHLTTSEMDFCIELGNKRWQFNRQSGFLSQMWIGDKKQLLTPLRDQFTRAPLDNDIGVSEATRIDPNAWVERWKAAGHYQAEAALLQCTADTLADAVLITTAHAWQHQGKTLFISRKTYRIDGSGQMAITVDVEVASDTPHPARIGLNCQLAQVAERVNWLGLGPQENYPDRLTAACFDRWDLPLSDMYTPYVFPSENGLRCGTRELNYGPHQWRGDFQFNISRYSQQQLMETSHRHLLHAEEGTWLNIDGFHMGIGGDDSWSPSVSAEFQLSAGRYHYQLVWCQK

[10] = cytotoxicity in OVCAR8 ovarian cancer cells, dose response, PAX8 project, cell-based, plate reader, dry powder samples (AID 743197); type: functional; settings: OVCAR-8
Paired box protein Pax-8 = Paired box protein Pax-8 (Homo sapiens, UniProt Q06710); experiment: inhibitors of PAX8-driven TPO luciferase reporter, dose response, RMG-I cells, cherry-pick (AID 687027); type: functional, cell-based;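 also: luciferase reporter driven by Pax8 target thyroperoxidase promoter measured by SteadyGlo luminescence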
Paired box protein Pax-8, sequence (Q06710 whole entry): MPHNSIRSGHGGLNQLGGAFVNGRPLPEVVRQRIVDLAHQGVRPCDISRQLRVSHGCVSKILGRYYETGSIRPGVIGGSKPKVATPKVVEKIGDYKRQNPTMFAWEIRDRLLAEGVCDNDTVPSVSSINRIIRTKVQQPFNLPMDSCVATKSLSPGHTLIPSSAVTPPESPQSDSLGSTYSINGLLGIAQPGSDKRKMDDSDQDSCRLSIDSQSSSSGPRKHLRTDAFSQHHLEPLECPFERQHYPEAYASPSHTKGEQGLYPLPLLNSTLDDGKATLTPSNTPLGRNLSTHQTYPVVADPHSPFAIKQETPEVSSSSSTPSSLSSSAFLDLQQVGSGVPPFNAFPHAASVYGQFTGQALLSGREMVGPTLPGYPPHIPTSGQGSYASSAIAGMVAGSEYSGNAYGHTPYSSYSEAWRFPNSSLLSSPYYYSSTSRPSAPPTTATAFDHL

[11] = IGROV1 ovarian cancer cell cytotoxicity, dose response, PAX8 inhibitor project, plate reader, dry powder samples (AID 743043); type: functional, cell-based; settings: IGROV-1
[12] = NIH:OVCAR-3 ovarian cancer cell cytotoxicity, dose response, PAX8 inhibitor project, plate reader, dry powder samples (AID 743044); type: functional, cell-based
[13] = inhibitors of CMV-promoter luciferase reporter, dose response, counter-screen for Pax8 inhibitor project, cell-based, HEK293, luminescence, dry powder (AID 743020); type: functional
[14] = Luminescence Cell-Based Dose Confirmation HTS to Identify Activators of 5'UTR Stem-Loop Driven Alpha-Synuclein mRNA Translation in H4 Neuroglioblastoma Cells. [Related pubchem assays: 1829 (Project Summary), 1814 (Primary HTS)]; type: functional
[15] = Luminescence Cell-Based Dose Response HTS to Identify Activators of Luciferase Translation or Activity in H4 […] Cells. [Related pubchem assays: 1829 (Project Summary), 1814 (Primary HTS)]; type: functional
H4 = experiment: Luminescence Cell-Based Dose Response HTS to Identify Activators of 5'UTR Stem-Loop Driven Prion Protein mRNA Translation in H4 Neuroglioblastoma Cells. [Related pubchem assays: 1829 (Project Summary), 1814 (Primary HTS)]; type: functional; settings: Homo sapiens
[16] = biological target: Fructose-bisphosphate aldolase (Mycobacterium tuberculosis, UniProt P9WQA3); experiment: Fluorescence-based biochemical high throughput dose response assay for inhibitors of the fructose-bisphosphate aldolase (FBA) of M. tuberculosis.; type: functional
Fructose-bisphosphate aldolase, sequence (P9WQA3 whole entry): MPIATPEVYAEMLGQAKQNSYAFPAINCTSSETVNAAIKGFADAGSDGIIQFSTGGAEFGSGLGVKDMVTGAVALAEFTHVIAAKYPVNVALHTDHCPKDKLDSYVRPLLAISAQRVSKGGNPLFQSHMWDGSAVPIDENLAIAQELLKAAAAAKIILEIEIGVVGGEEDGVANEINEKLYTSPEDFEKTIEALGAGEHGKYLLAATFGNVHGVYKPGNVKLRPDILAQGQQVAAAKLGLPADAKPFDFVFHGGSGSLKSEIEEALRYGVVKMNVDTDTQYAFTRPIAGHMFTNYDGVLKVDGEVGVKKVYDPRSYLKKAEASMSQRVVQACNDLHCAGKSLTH

cells = type: functional, cell-based; settings: HEK-CNG
INS1 = experiment: beta cell apoptosis inhibitors, cytokine rescue, dose response, luminescence, retest (AID 449756); type: functional, cell-based; settings: Rattus norvegicus;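 also: cell death triggered by IL-1 beta plus TNF-alpha plus IFN-gamma mixture; protective hits raise ATP signal compared with cytokine alone wells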
[17] = biological target: T2, COUP transcription factor 2 (Homo sapiens, UniProt P24468); experiment: Luminescence-based cell-based high throughput dose response assay to identify inhibitors of COUP-TFII (NR2F2).; type: functional;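 also: HEK293 cells transiently cotransfected with COUP-TFII expression vector and reporter; luciferase reporter luminescence driven by COUP-TFII from the pX2-168 reporter plasmid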
T2 sequence (P24468 whole entry): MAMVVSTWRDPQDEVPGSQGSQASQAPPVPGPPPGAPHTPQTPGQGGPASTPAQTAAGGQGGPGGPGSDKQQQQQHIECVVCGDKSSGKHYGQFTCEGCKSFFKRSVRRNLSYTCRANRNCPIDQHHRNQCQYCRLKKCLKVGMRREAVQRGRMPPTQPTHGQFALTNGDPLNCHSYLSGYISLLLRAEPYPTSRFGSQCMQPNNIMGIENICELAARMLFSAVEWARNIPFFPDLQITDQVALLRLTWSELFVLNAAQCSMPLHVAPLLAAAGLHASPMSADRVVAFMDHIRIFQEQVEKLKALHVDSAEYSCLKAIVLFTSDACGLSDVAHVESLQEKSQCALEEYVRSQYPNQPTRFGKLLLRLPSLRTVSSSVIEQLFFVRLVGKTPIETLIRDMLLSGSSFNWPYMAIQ

Galanin receptor type 3 = Galanin receptor type 3 (Homo sapiens, UniProt O60755); experiment: Fluorescence-based cell-based primary high throughput dose response assay to identify antagonists of the Galanin Receptor 3 (GalR3).; type: functional
Galanin receptor type 3, sequence (O60755 whole entry): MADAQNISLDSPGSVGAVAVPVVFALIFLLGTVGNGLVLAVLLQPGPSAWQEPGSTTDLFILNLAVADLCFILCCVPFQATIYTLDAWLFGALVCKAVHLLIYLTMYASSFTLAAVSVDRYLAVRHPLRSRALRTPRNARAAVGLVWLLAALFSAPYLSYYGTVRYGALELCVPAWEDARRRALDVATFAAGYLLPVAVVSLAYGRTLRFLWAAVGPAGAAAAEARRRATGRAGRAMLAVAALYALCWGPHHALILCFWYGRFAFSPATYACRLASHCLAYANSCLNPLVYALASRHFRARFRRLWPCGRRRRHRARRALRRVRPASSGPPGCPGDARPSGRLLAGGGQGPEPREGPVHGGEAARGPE

[18] = cytotoxicity in HEK-293T cells, dose response, cytotoxicity control for TCR NF-kB inhibitor project, luminescence, T-cell screen hits (AID 489026); type: functional, cell-based;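 also: cells exposed to compound about 14 hours before the viability readout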
[19] = T. cruzi intracellular amastigote growth inhibition, dose response, imaging, CA-I/72 strain, bovine embryo skeletal muscle, dry powder (AID 651885); type: functional, cell-based

With CCCn1c(=N)n(CC(O)COc2ccc(C)cc2)c2ccccc21 (configuration not stated) the AC50 (Vero) was 24.6 µM (active), the EC50 [1] was > 53 µM (inactive) and the IC50 [2] was > 47.1 µM (inactive).
In the case of CCN(CC(O)CON=C1c2ccccc2-c2ccccc21)S(=O)(=O)c1ccc(Cl)cc1 (configuration not stated), the AC50 [3] is reported as 10.1 µM (active), the EC50 [4] is reported as 2.15 µM (active) and the EC50 [5] is reported as > 60 µM (not active). The AC50 [6] was 28.6 µM (active), the AC50 [7] was 29.3 µM (active) and the AC50 [8] was 5.8 µM (active). For the same molecule, the AC50 [9] was 16.3 µM (active).
For Cc1c(C(=O)N2CCN(c3ncccn3)CC2)oc2ccc(Cl)cc12, the IC50 (Beta-galactosidase) was > 80 µM (inactive).
For Cc1ccc(S(=O)(=O)N(C)C[C@H]2OCCCC[C@H](C)Oc3ccc(NS(=O)(=O)c4ccc(Cl)cc4)cc3C(=O)N([C@H](C)CO)C[C@@H]2C)cc1, the AC50 [10] was 31.7 µM (active), the AC50 (Paired box protein Pax-8) was 4.09 µM (active) and the AC50 [11] was 45.7 µM (active). The AC50 [12] was 17.9 µM (active).
For C[C@@H]1CCCCO[C@H](CN(C)CC2CCCCC2)[C@H](C)CN([C@@H](C)CO)C(=O)c2cc(NS(=O)(=O)c3ccc(Cl)cc3)ccc2O1, the AC50 [13] was 50.5 µM (active) and the AC50 (Paired box protein Pax-8) was 6.43 µM (active).
With Cc1ccc(C2CC(c3ccccc3)=NN2c2ccccc2)o1 (configuration not stated) the EC50 [14] was 111 µM (active), the EC50 [15] was > 120 µM (not active) and the EC50 (H4) was 27.9 µM (active). The IC50 [16] was > 0.37 µM (active).
In the case of Cn1nc(C(C)(C)C)cc1C(=O)NCc1cc(F)cc2c1OCOC2, the EC50 (cells) is reported as > 29.9 µM (inactive), the AC50 (INS1) is reported as 4.13 µM (active) and the IC50 [17] is reported as 6.69 µM (active). The IC50 (Galanin receptor type 3) was 0.987 µM (active) and the IC50 [18] was > 80 µM (inactive).
For CNC[C@@H]1Oc2c(NC(=O)c3ccncc3)cccc2C(=O)N(C(C)C)C[C@H]1C, the IC50 [19] was > 20 µM (inactive).
